# Read-outs that look alike come from different tables or passages of the source.
# Tests used:
# [1] = test system: LPS-induced TNF-α production; assay: Sub-lethal LPS-induced endotoxemia, serum TNF-α by ELISA; type: in vivo, mouse; conditions: for inhibition of LPS-induced TNF-α production: mouse, reference agents, previously shown by applicant, dose not stated
# Protocol: In this assay, mice are given a non-specific pro-inflammatory challenge using bacterial endotoxin (LPS), and the extent of the systemic inflammatory response (measured by serum levels of the central pro-inflammatory cytokine TNF-α, which is essentially absent from the blood under normal conditions, but is rapidly elevated in response to a wide range of inflammatory stimuli).
# Mice (in groups of 6) were pretreated with various doses of each compound, either by the subcutaneous route 30 mins prior to LPS challenge, or by the oral route (via gavage) 60 mins prior to LPS. The mice were then challenged with an intraperitoneal injection of 750 μg of bacterial LPS and sacrificed 3 hours later. Serum was prepared from a terminal bleed by cardiac puncture, and the concentration of TNF-α is determined by ELISA (R&D Systems). In each experiment, a group of 6 mice receive no LPS to act as a negative control, and a second group receive only LPS (with no candidate inhibitor). The level of TNF-α in serum from these animals, which received LPS without drug pre-treatment, is arbitrarily set to 100% (and is typically of the order of 6,000 pg/ml, compared with levels of <10 pg/ml among the negative control group). […]
# [2] = test system: lung leukocyte recruitment and T-helper cell polarisation; assay: Ovalbumin-induced lung inflammation model of asthma (BAL leukocyte count, splenocyte Th1/Th2 ratio); type: in vivo, Brown Norway rat; conditions: rat, 30 mg/kg daily oral
# Protocol: Adult Brown Norway rats (200-300 g body weight; n=10 per group) were sensitised by a single intraperitoneal injection of 0.1 mg Ovalbumin on day 0. Each rat then received an intratracheal challenge with a solution of 1% ovalbumin (w/v) on day 8, and with 2% ovalbumin (w/v) on days 15, 18 and 21. The animals were then sacrificed 3 hours after the final challenge on day 21. Note that ovalbumin (Sigma; purest available grade) was made endotoxin-free by passage over EndoTrap™ Red columns (purchased from Cambrex; used in accordance with the manufacturer's instructions), and the endotoxin level was confirmed as <5 EU/mg protein using the LAL assay (QCL-1000™; Cambrex; performed in accordance with the manufacturer's instructions; 1 mg of standard endotoxin contains ˜900,000 EU/mg). […]
# On sacrifice, total lung leukocyate recruitment was assessed by performing a broncheoalveolar lavage (BAL) using 4 lots of 3 ml sterile phosphate-buffered saline introduced through a tracheal cannula. For each animal, the BAL washes were combined, and the total cell population counted (using a haemocytometer). […]
# The spleen was also removed from each […] and placed in RPMI+10% FCS+antibiotics. […] The resulting cell suspension was then centrifuged (328 g; 5 mins) and washed in RPMI+10% FCS+antibiotics, before being resuspended in fresh media and counted using a haemocytometer. […]
# [3] = Pharmacokinetics following a single dose in rat (LC-MS/MS of blood, one-compartment model); type: in vivo; conditions: rat, averaged across three rats
# Protocol: Compounds were administered as a single dose (either 1 mg/kg bodyweight in 5% DMSO via the intravenous route or 3 mg/kg in 1% carboxymethylcellulose via the oral route) to three adult rats (using different rats for each compound and each route of administration).
# Blood was then sampled at various time points (including just prior to dose administration) out to 24 hrs post dose, and the level of the various compounds was assessed using a validated LC-MS/MS assay. Briefly, 3-5 μl of the deproteinised sample was applied to a Waters Atlantis (C18 20×2.1 mm, 3 μm bead size) reverse phase chromatography column equilibrated in 0.1% formic acid in 95:5 water:actetonitrile. Over 3.5 minutes bound material was gradient eluted reaching 0.1% formic acid in 5:95 water:acetonitrile, followed by a step gradient back to 0.1% formic acid in 95:5 water:acetonitrile. The column eluent was then directed to an Applied Biosystems API 4000/3200 QTrap MS/MS mass spectrometer, with a Turbolonspray™ ion source operating in positive ion mode. The interface temperature was set at 650° C., with a 40 ms dwell time for each MRM transition, monitoring the following ions:
# The internal standard in each determination was the related compound (S)-3-(2′,2′-dimethylpropanoylamino)-caprolactam, which was spiked into the sample prior to deproteinization. The lower limit of quantitation (LLOQ) for this assay was 2.4 ng/ml for each compound except (I′), where it was 38.1 ng/ml.
# Following LC-MS/MS analysis of each collected sample, the pharmacokinetic disposition of the compound was modelled using Kinetica software, a well known software package for such applications.
# [4] = Identification of the primary metabolites in pooled 24 h urine (LC-MS-MS full scan); type: in vivo; conditions: rat, single oral dose 3 mg/kg in 1% CMC, qualitative
# Protocol: Urine was collected from rats exposed to a single oral dose (3 mg/kg in 1% CMC) of each compound over a 24 hour period in metabolic cages. The pooled urine sample was then subjected to full scan mass spectral analysis, using the same LC-MS conditions as described in example 1 above. Further MS-MS analysis of the product ions was then performed, and likely fragmentations/re-arrangements assigned from the publicly available Metabolite ID database.
# For the major metabolites, the assigned structures were confirmed by synthesis of authentic samples, using methods well known in the art, which were subject to LC-MS-MS analysis under the same conditions as the urine samples.
# Note that metabolite ID studies provide only qualitative estimates of the relative amounts of the different metabolites present, and separately validated assays with appropriate internal standards would be required to quantitate each metabolite species.
# The detected metabolites, in rank order of concentration detected are shown in FIG. 2 for the five compounds analysed. It is important to note that the methodology used here is not necessarily exhaustive, and further (particularly minor) metabolites may also be present which were below the detection limits for the methods applied here. As a general rule, it can be assumed that metabolites representing 10% or more of the injected dose will be detected (though not necessarily structurally identified) by the methods used here).
# [5] = test system: MCP-1 induced THP-1 cell migration; assay: ChemoTx transwell migration assay, MCP-1 induced migration of THP-1 cells; type: cell-based; conditions: Homo sapiens
# Protocol: In principle, this assay consists of two chambers separated by a porous membrane. The chemoattractant is placed in the lower compartment and the cells are placed in the upper compartment. After incubation for a period at 37° C. the cells move towards the chemoattractant, and the number of cells in the lower compartment is proportional to the chemoattractant activity (relative to a series of controls).
# The THP-1 cell line (European Cell Culture Collection) were used as the leukocyte cell population.
# First, the cell suspension to be placed in the upper compartment is prepared. The THP-1 cells are pelleted by centrifugation (770×g; 4 mins) and washed with Geys Balanced Salt Solution with 1 mg/ml BSA (GBSS+BSA). This wash is then repeated, and the cells repelleted before being resuspended in a small volume of GBSS+BSA for counting, for example using a standard haemocytometer.
# The volume of GBSS+BSA is then adjusted depending on the number of cells present so that the cells are at final density of 4.45×10^6 cells per ml of GBSS+BSA. This ensures that there are […] THP-1 cells in each 25 μl of the solution that will be placed in the upper chamber of the plate.
# To test a single compound for its ability to inhibit chemokine induced migration, it is necessary to prepare two lots of cells. The suspension of THP-1 cells at 4.45×10^6 cells/ml is divided into two pots. To one pot the inhibitor under test is added at an appropriate final concentration, in an appropriate vehicle (for example at 1 μM in not more than 1% DMSO). To the second pot an equal volume of GBSS+BSA plus vehicle as appropriate (e.g. not more than 1% DMSO) is added to act as a control.
# Next, the chemoattractant solution to be placed in the lower compartment is prepared. For example, MCP-1 is diluted in GBSS+BSA to give a final concentration of 25 ng/ml. This is divided into two pots, as for the cell suspension. To one pot, the test compound is added to the same final concentration as was added to the cell suspension, while to the other pot an equal volume of GBSS+BSA plus vehicle as appropriate (e,g. not more than 1% DMSO) is added. Alternatively, other chemokines may be used (SDF-1α at 7.5 ng/ml; RANTES at 50 ng/ml; IL-8 at 10 ng/ml using neutrophils as the target cell population). In each case it is important to determine (in a separate experiment) the concentration of each chemokine which causes maximal stimulation of migration of the chosen target leukocyte population. This maximal concentration must then be used in experiments to test the inhibitory activity of the compounds of the invention.
# Once the chemoattractant solutions for the lower wells and cell solutions for the upper chambers have been prepared, the migration chamber should be assembled. Place 29 μl of the appropriate chemoattractant solution into the lower well of the chamber. Assays should be performed with at least triplicate determinations of each condition. Once all the lower chambers have been filled, apply the porous membrane to the chamber in accordance with the manufacturer's instructions. Finally, apply 25 μl of the appropriate cell solution to each upper chamber. A plastic lid is placed over the entire apparatus to prevent evaporation.
# The assembled chamber is incubated at 37° C., 5% CO2, for 2 hours. A suspension of cells in GBSS+BSA is also incubated under identical conditions in a tube: these cells will be used to construct a standard curve for determining the number of cells that have migrated to the lower chamber under each condition.
# At the end of the incubation, the liquid cell suspension is gently removed from the upper chamber, and 20 μl of ice-cold 20 mM EDTA in PBS is added to the upper chamber, and the apparatus is incubated at 4° C. for 15 mins. This procedure causes any cells adhering to the underside of the membrane to fall into the lower chamber.
# After this incubation the filter is carefully flushed with GBSS+BSA to wash off the EDTA, and then the filter is removed. […]
# [6] = test system: S. Typhinurium (TA 102, TA98 and TA 100); assay: AMES test, revertant colony formation; type: cell-based
# Protocol: The five compounds were subjected to a standard AMES test to assess likely genotoxicity. Three His-auxotroph strains of S. Typhinurium (TA 102, TA98 and TA 100) were treated with each of the compounds at 5 concentrations (up to 5 mg/ml) in the presence and absence of S9 rat liver microsomal metabolising system. The number of revertant colonies was then determined by plating on trace-His minimal media.
structure (smiles),measurement,setting,value
O=C1CCC(N2C(=O)c3ccccc3C2=O)C(=O)N1 (stereo not drawn) [thalidomide],inhibition of LPS-induced TNF-α production,[1],about 60%
C[C@@H]1C[C@H]2[C@@H]3CCC4=CC(=O)C=C[C@]4(C)[C@@]3(F)[C@@H](O)C[C@]2(C)[C@@]1(O)C(=O)CO [dexamethasone],inhibition of LPS-induced TNF-α production,[1],at least 90%
CC(C)(O)c1ccccc1CC[C@@H](SCC1(CC(=O)O)CC1)c1cccc(/C=C/c2ccc3ccc(Cl)cc3n2)c1 [monteleukast],number of leukocytes in the BAL washes,[2],significantly reduced the number of leukocytes in the BAL washes
"C=CCCCCCCCCC(=O)N[C@H]1CCC(=O)NC1=O [NR58,4]","fold less potent in vivo than 2′,2′-dimethylpropanoylamino)-tetrahydropyridin-2-one",[1]; models of acute inflammation such as LPS-induced endotoxemia,at least 250 fold
"CC1(C(=O)N[C@H]2CCCCNC2=O)CCCCC1 [(III), 3-(1′-methylcyclohexylcarbonylamino)-caprolactam]",AUC(0-inf),"[3]; blood, single oral dose 3 mg/kg in 1% CMC, read-out: Exposure (AUC 0->infinity) (converted)",48.3 ng·h/mL
same,F (%) oral bioavailability,"[3]; 1 mg/kg iv in 5% DMSO and 3 mg/kg oral in 1% CMC, one-compartment model",5%
same,Vss (L/kg) volume of distribution,[3]; one-compartment model,0.6 L/kg
same,clearance,[3]; one-compartment model,55 mL/min/kg
same,t½ (mins) dominant plasma half-life,[3]; one-compartment model,11 min
same,major metabolite / route of metabolism detected in urine,[4],cytochrome P450-mediated hydroxylation
same,EC50,"[5]; THP-1 cells, maximal dose of chemoattractant, read-out: ED50 MCP-1",0.08 nM
same,EC50,"[5]; THP-1 migration inhibition, Table 5, read-out: Functional ED50 versus MCP-1",0.08 nM
same,Revertant colony formation TA98 + S9,"[6]; TA98 with S9, top dose 5 mg/ml",0.55
same,Revertant colony formation TA98,"[6]; TA98 without S9, top dose 5 mg/ml",0.68
same,Revertant colony formation TA100 + S9,"[6]; TA100 with S9 rat liver microsomal system, top dose 5 mg/ml",0.81
same,Revertant colony formation TA100,"[6]; TA100 without S9, top dose 5 mg/ml",0.79
same,Revertant colony formation TA102 + S9,"[6]; TA102 with S9, top dose 5 mg/ml",0.88
same,Revertant colony formation TA102,"[6]; TA102 without S9, top dose 5 mg/ml",0.69

# From patent US7897620B2, “Methods of using anti-inflammatory compounds” (Cambridge Enterprise Limited, priority 2007, dated 2011)
